The experiment deals with 1807 cells. The experiment is classed as cell-based, mouse. Conditions: Calnexin peptide #1, 13 amino acid sequence of the named species.

The record followed here is US9993534B2, “Method of treating fungal infection” (Wisconsin Alumni Research Foundation, priority 2013, dated 2018).

Turning to LVLKSRAKHHAIS [Homo sapiens (Calmegin)], the 1807 reactive entry was “not reactive with the 1807 cells”.
